Results taken from patent US10376520B2, “Methods for the treatment of cardiovascular disorders” (Galapagos NV, priority 2015, dated 2019).

System: RA patients
Assay: ApoB level (Selectra autoanalyzer), Study 4
Format: in vivo, human
Settings: for ApoB level, 4 weeks CFB: 4 weeks change from baseline
Method: Randomized double-blind, placebo-controlled add on study in subjects with active RA who have an inadequate response to MTX monotherapy, in combination with methotrexate, administered for 4 weeks in the treatment of subjects with active rheumatoid arthritis who have an inadequate response to methotrexate alone.
Compound 1 (dosed as a [Compound 1:HCl:3H2O]) capsules administered orally in 30 mg, 75 mg, 150 mg, or 300 mg doses per day for 4 weeks.
ApoAI, and ApoB were measured on the Selectra autoanalyzer (Sopachem BV, 44-RI Straat 33, 4051 AP Ochten, The Netherlands). All assays were commercially available from DiaSys Diagnostic Systems GmbH, Alte Strasse 9, 65558 Holzheim, Germany.

O=C(Nc1nc2cccc(-c3ccc(CN4CCS(=O)(=O)CC4)cc3)n2n1)C1CC1 [Compound 1, cyclopropanecarboxylic acid {5-[4-(1,1-dioxo-thiomorpholin-4-ylmethyl)-phenyl]-[1,2,4]triazolo[1,5-a]pyridin-2yl}-amide]
ApoB level, 4 weeks CFB (30 mg q.d.): 19.5%
ApoB level, Baseline (30 mg q.d.): 98.8 mg/dL
ApoB level, week 4 (30 mg q.d.): 111 mg/dL
ApoB level, 4 weeks CFB (75 mg q.d.): −1.1%
ApoB level, Baseline (75 mg q.d.): 98.5 mg/dL
ApoB level, week 4 (75 mg q.d.): 94.7 mg/dL
ApoB level, 4 weeks CFB (150 mg q.d.): −1.8%
ApoB level, Baseline (150 mg q.d.): 93.8 mg/dL
ApoB level, week 4 (150 mg q.d.): 90.7 mg/dL
ApoB level, 4 weeks CFB (300 mg q.d.): 6.8%
ApoB level, Baseline (300 mg q.d.): 89.4 mg/dL
ApoB level, week 4 (300 mg q.d.): 95.6 mg/dL
